The results in this text go back to patent publication EP4129284B1, “SERTACONAZOL FOR PROVIDING A SPORISTATIC AND/OR SPORICIDAL EFFECT” (Dr. Pfleger Arzneimittel GmbH, priority 2021, dated 2023).

One test deals with T. rubrum. Kind of test: Full skin model infected with spores, treatment, histology (PAS-staining). Format: cell-based, Trichophyton rubrum. The settings on record: for spread of T. rubrum: up to 72 h after application, ciclopiroxolamin 400 µg/mL, terbinafin 0.050 µg/mL, histology vs infected untreated control; for outgrowth of the spores of T. rubrum: sertaconazol 0.025 µg/mL, Fig. 5. From the text: (§1) For an application in vivo, there is the additional requirement for the antimycotic substances to evoke a targeted antimycotic activity in the presence of human cells. Thus, 3D-cell-cultures such as full skin models are used to simulate the in vivo conditions. Such full skin models are for example described in Reddersen K, Wiegand C, Elsner P, Hipler UC. Three-dimensional human skin model infected with Staphylococcus aureus as a tool for evaluation of bioactivity and biocompatibility of antiseptics. Int J Antimicrob Agents. 2019; 54(3):283-291; Wiegand C, Fink S, Beier O, Horn K, Pfuch A, Schimanski A, Grünler B, Hipler UC, Elsner P. Dose- and Time-Dependent Cellular Effects of Cold Atmospheric Pressure Plasma Evaluated in 3D Skin Models. Skin Pharmacol Physiol. 2016;29(5):257-265. Particularly, such full skin models are made of a collagen matrix, which is colonized with primary human fibroblasts, and a fully differentiated epidermis made of primary human keratinocytes. For the experiments, the model is infected in vitro with spores, such that a determination of the sporistatic or sporicidal influence of the substances to be examined at in vivo relevant conditions is allowed. Compared to a 2D-model, the 3D full skin model has the advantage that the cells are in their natural three-dimensional surrounding and show a corresponding behaviour. Such, the antimycotic and sporistatic or sporicidal effects can be examined in situ and in the presence of human cells.
The spore suspensions and the solutions of sertaconazol, ciclopiroxolamin and terbinafin were prepared as in Example 1, wherein the respective test concentrations were obtained by diluting these solutions in ultrapure water (WFI; Fresenius Kabi) instead of SGB (Merck). Full skin models were produced as previously described [Reddersen K, Wiegand C, Elsner P, Hipler UC. Three-dimensional human skin model infected with Staphylococcus aureus as a tool for evaluation of bioactivity and biocompatibility of antiseptics. Int J Antimicrob Agents. 2019; 54(3):283-291; Wiegand C, Fink S, Beier O, Horn K, Pfuch A, Schimanski A, Grünler B, Hipler UC, Elsner P. Dose- and Time-Dependent Cellular Effects of Cold Atmospheric Pressure Plasma Evaluated in 3D Skin Models. Skin Pharmacol Physiol. 2016;29(5):257-265].Particularly, normal human dermal fibroblasts (NHDF; Lot 1060702.1, Promocell) and normal human epidermal keratinocytes (NHEK; Lot 9100102, Promocell) were used. Fibroblasts were cultivated in Dulbecco's modified eagle medium (DMEM; Lot MC09049P, Amimed), with 2% foetal calf serum (Lot P160509; PAN), 5 ng/mL hFGF (Lot 0329586; novoprotein) and 5 µg/ml Insulin (Lot H07443P, AMIMED) at 37°C and a 5% CO2 atmosphere. […]

The subject of a further test is C. albicans. Described as above. Format: cell-based, Candida albicans. The conditions noted are these: over 72 h, sertaconazol 800, ciclopiroxolamin 400, terbinafin 1600 µg/mL, Fig. 7.
Source text: as §1
The spore suspensions and the solutions of sertaconazol, ciclopiroxolamin and terbinafin were prepared as in Example 1, wherein the respective test concentrations were obtained by diluting these solutions in ultrapure water (WFI; Fresenius Kabi) instead of SGB (Merck). Full skin models were produced as previously described [Reddersen K, Wiegand C, Elsner P, Hipler UC. […] 2019; 54(3):283-291; Wiegand C, Fink S, Beier O, Horn K, Pfuch A, Schimanski A, Grünler B, Hipler UC, Elsner P. Dose- and Time-Dependent Cellular Effects of Cold Atmospheric Pressure Plasma Evaluated in 3D Skin Models. […]

SMILES strings stand for the structures.

On to `Cc1cc(C2CCCCC2)n(O)c(=O)c1` [Ciclopiroxolamin, ciclopiroxolamin], for which, in the test with T. rubrum, the “spread of T. rubrum” value is listed as “reduce the spread of T. rubrum but could not inhibit it”. Moreover, the “outgrowth of C. albicans” value with C. albicans was “much lower effect”.
For `Clc1ccc(C(Cn2ccnc2)OCc2csc3c(Cl)cccc23)c(Cl)c1` (stereo not shown) [Sertaconazol, sertaconazol], the “outgrowth of the spores of T. rubrum” value in the test on T. rubrum (48 h treatment) is “inhibit the outgrowth”; with T. rubrum (72 h treatment) it was “reduce the outgrowth”. Besides, the “outgrowth of C. albicans” value with C. albicans is “clearly reduced”.
For the compound `CN(C/C=C/C#CC(C)(C)C)Cc1cccc2ccccc12` [Terbinafin, terbinafin], the “spread of T. rubrum” value in the test on T. rubrum was “did not have any effect”. Moreover, the “outgrowth of C. albicans” value in the test with C. albicans is reported as “much lower effect”.
